Columns and labels:
[1] = tested on: SARS-CoV-2; experiment: Antiviral actvity against SARS-CoV2 infected in human assessed as improvement rate of chest at 1600 mg, po administered twice on day 1 and 600 mg BID on day 2 to 14 and measured after 14 days by computed tomography; type: functional, Severe acute respiratory syndrome coronavirus 2; settings: time 14 day
[2] = tested on: Zaire ebolavirus; experiment: Antiviral activity against Zaire Ebola virus infected in IFNAR-/- C57BL/6 mouse assessed as mouse survival at 300 mg/kg, po administered twice daily starting from day 6 post infection until day 13 post infection and measured at the end of 3 weeks; type: functional
[3] = tested on: Zaire ebolavirus; experiment: Antiviral activity against Zaire Ebola virus infected in African green monkey Vero E6 cells measured after 5 days by immunofocus assay; type: functional, organism-based; settings: Vero C1008, 120 h
[4] = tested on: SARS-CoV-2; experiment: Antiviral activity against 2019-nCoV BetaCoV/Wuhan/WIV04/2019 infected in African green monkey VeroE6 cells assessed as reduction in viral yield preincubated with virus for 1 hr followed by cell infection and […] by qRT-PCR method; type: functional, organism-based; settings: Severe acute respiratory syndrome coronavirus 2, BetaCoV/Wuhan/WIV04/2019, Vero C1008
[5] = Cytotoxicity against African green monkey Vero E6 cells by the CCK8 assay; type: cell-based, Vero C1008; settings: chlorocebus sabaeus
[6] = Selectivity index, ratio of CC50 for African green monkey Vero E6 cells to EC50 for 2019-nCoV Beta CoV/Wuhan/WIV04/2019 infected in African green monkey Vero E6 cells; type: toxicity, Vero C1008; settings: read-out: Ratio CC50/EC50
[7] = Toxicity in human infected with SARS-CoV2 assessed as adverse events at 1600 mg, po administered twice on day 1 and 600 mg BID on day 2 to 14 and measured after 14 days; type: organism-based; settings: in vivo, 336 h, time 14 day
[8] = tested on: SARS-CoV-2; experiment: Antiviral actvity against SARS-CoV2 infected in human assessed as latency time to pyrexia reduction at 1600 mg administered twice on day 1 and 600 mg BID for 7 days; type: functional, Severe acute respiratory syndrome coronavirus 2; settings: time 7 day
[9] = tested on: SARS-CoV-2; experiment: Antiviral actvity against SARS-CoV2 infected in human assessed as latency time to cough relief at 1600 mg administered twice on day 1 and 600 mg BID for 7 days; type: functional, Severe acute respiratory syndrome coronavirus 2; settings: time 7 day
[10] = Inhibition of SARS Coronavirus helicase pp1ab domain assessed as reduction in ATPase activity by phosphomolybdate-malachite green assay; design: species or system Severe acute respiratory syndrome-related coronavirus
[11] = Inhibition of SARS Coronavirus helicase pp1ab domain assessed as reduction in helicase activity using DT20Cy3/Release BHQ oligomers by FRET-based assay; design: species or system Severe acute respiratory syndrome-related coronavirus
[12] = tested on: SARS-CoV; experiment: Antiviral actvity against SARS-CoV GZ50 infected in Rhesus macaque FRhK-4 cells assessed as reduction in virus-induced cytopathic effect incubated for 24 to 48 hrs by phase-contrast microscopy; type: functional, organism-based; settings: Severe acute respiratory syndrome-related coronavirus, GZ50, FRhK-4
[13] = Cytotoxicity against Rhesus macaque FRhK-4 cells by MTT assay; type: cell-based, Macaca mulatta; settings: rhesus monkey
[14] = Cytotoxicity against human Huh-7 cells incubated for 1 hr by MTS assay; type: cell-based
[15] = Cytotoxicity against African green monkey Vero E6 cells incubated for 3 days by the MTS assay; type: cell-based, Vero C1008; settings: chlorocebus sabaeus, time 3 day
[16] = tested on: Human coronavirus OC43; experiment: Antiviral activity against wild type HCoV-OC43 infected in BHK-21 cells incubated for 72 hrs by RT-PCR method; type: functional, cell-based; settings: Betacoronavirus 1, BHK-21, 72 h
[17] = tested on: SARS-CoV; experiment: Antiviral activity against SARS-CoV isolate Frankfurt-1 infected in African green monkey Vero E6 cells incubated for 3 days; type: functional, organism-based; settings: Severe acute respiratory syndrome-related coronavirus, Frankfurt 1, Vero C1008, 72 h
[18] = tested on: SARS-CoV; experiment: Antiviral activity against SARS-CoV isolate Frankfurt-1 infected in African green monkey Vero E6 cells incubated for 3 days by MTS assay; type: functional, organism-based; settings: Severe acute respiratory syndrome-related coronavirus, Frankfurt 1, Vero C1008, 72 h
[19] = Cytotoxicity against African green monkey Vero E6 cells by the MTS assay; type: cell-based, Vero C1008; settings: chlorocebus sabaeus

| Compound | Activity [1] [%] | Activity [2] [%] | IC50 [3] [µM] | IC50 [4] [µM] | CC50 [5] [µM] | selectivity ratio [6] | Activity [7] [%] | Time [8] [days] | Time [9] [days] | IC50 [10] [µM] | IC50 [11] [µM] | EC50 [12] [µM] | CC50 [13] [µM] | CC50 at 1 h [14] [µM] | CC50 at 72 h [15] [µM] | EC50 [4] [µM] | EC50 [16] [µM] | EC50 [17] [µM] | IC50 [18] [µM] | CC50 [19] [µM] |
| --- | --- | --- | --- | --- | --- | --- | --- | --- | --- | --- | --- | --- | --- | --- | --- | --- | --- | --- | --- | --- |
| NC(=O)c1nc(F)cnc1O | 91.4 | 100 | 67 | 61.8 | > 400 | > 6.46 | 11.4 | 1.7 | 1.75 |  |  |  |  |  |  |  |  |  |  |  |
| Cc1ncc(CO)c(C23OC4(O)CC(O)(CC(O)(C4)O2)O3)c1O |  |  |  |  |  |  |  |  |  | 2.3 | 3 | < 10 | 390 |  |  |  |  |  |  |  |
| CCN(CC)CCCC(C)Nc1ccnc2cc(Cl)ccc12 (stereo unspecified) [CHLOROQUINE] |  |  |  |  | > 100 |  |  |  |  |  |  |  |  | > 50 | > 128 | 1.13 | 0.33 | 4.1 | 8.8 | 261 |
